Test results published in patent US8466203B2, “Method of stabilizing human eye tissue by reaction with nitrite and related agents such as nitro compounds” (priority 2006, dated 2013).
“And” between values parts separate entries of the source, which are not always exact repeats. Identical values can stand only once. Like-named read-outs stand apart in the source and are kept apart here.

Legend:
[1] = system: primary bovine corneal endothelial cells; conditions: for Cytotoxic threshold (using trypan blue): 48 hrs exposure
human sclera = test: Thermal shrinkage temperature analysis of human scleral strips; conditions: pH 7.4, 37° C., 96 hrs
Source text: Thermal shrinkage temperature or denaturation temperature (Ts) is a technique that has been used for decades in studying collagen cross-linking. As collagen fibers are progressively heated, a threshold temperature is reached at which point disruption of hydrogen bonding in the collagen molecule triple helix occurs, resulting in unwinding of the triple helices. The denaturation of tertiary protein structure results in a rapid shrinkage of the tissue of up to 80%. This phenomenon can be expressed in various ways including temperature of onset of tissue shrinkage, temperature at maximal tissue shrinkage, and temperature at 50% of maximal tissue shrinkage, for example. In addition, differential scanning calorimetry (DSC) is related to thermal shrinkage temperature analysis and is widely used to evaluate biomaterial cross-linking. Thermal shrinkage temperature is essentially a simplified version of DSC and can be used effectively to screen the cross-linking efficacy of compounds. For the purposes of this study, the onset of shrinkage is considered the Ts and the temperature at which 50% of maximal shrinkage has occurred is T50. Graphs depicting the relationship between degree of shrinkage and temperature indicate differences in degree of cross-linking between groups. Thus, stabilization of collagen fiber structures through non-enzymatic cross-linking increases Ts and T50. A 5° C. upward shift in Ts for the anterior corneal stroma has been shown for the UVR cross-linking method (Spoerl, E., et al., 2004).
A semi-automated system has been developed which increases the efficiency and accuracy of Ts data collection. This system can perform multiple Ts assays in succession, allowing rapid screening of a number of potential cross-linking agents and conditions. […] Inlet and outlet fittings allow for constant circulation of heated water which is modulated by a digitally controlled water bath equipped with a water pump. The entire box is placed on a digital photo scanner connected to a Windows based computer. Beginning at 50° C. the temperature is raised at a rate of 1° C./min and serial scans are taken at every degree increase in temperature up to 80° C. Control pig corneas shrink at approximately 63° C. and cross-linked tissue at higher temperatures. As the tissue shrinks, the images are captured by the scanner. The image files are later analyzed for 2-dimensional area using NIH Image J software and % shrinkage calculations are made using Microsoft Excel for graphing purposes. This method obviates the need for removal of tissue pieces from the water bath with manual micrometer measurements as described by the UVR group (Spoerl, E., et al., 2004). Thus, the labor involved in acquiring data is lessened and the accuracy using image analysis is improved.
Shrinkage temperature (Ts) of porcine cornea (FIG. 16) and porcine and human sclera (FIGS. 17 and 18) cross-linked with 2-nitroethanol. […] Following reaction, thermal shrinkage temperature analysis was performed (Table 4). Several compounds were studied including NaNO2, 2-nitroethanol, 2-nitro-1-propanol, 3-nitro-2-pentanol, 2-nitrophenol, 2-nitroethane, 2-aminoethanol, isopentyl nitrite, DPTA/NO, DETA/NO, and urea, a nitrous acid trap.

[2] = system: bovine corneal endothelial cells; conditions: 48 hrs exposure
porcine cornea = test: Light transmission of cross-linked corneo-scleral complexes; conditions: 10 mM, 96 hrs incubation
Method: Following a 96 hrs incubation period at 10 mM, the corneo-scleral complexes were mounted between 2 pieces of quartz, previously determined to have no ultraviolet absorption. […] The sample was then mounted in a vertical, adjustable stage apparatus specifically designed to accommodate a PC 1000 Fibre Optic Spectrometer (Ocean Optics, Inc.). A xenon lamp was used as a light source and was connected to the upper half of the stage. The lower half was connected to a high sensitivity CCD mounted on a card which is installed in a PC computer. The CCD array detector captures a full wavelength spectrum (i.e. 200-1000 nm).
The absorption spectrum for each sample was recorded and exported into Microcal Origin 6.1 for processing. […] The scattering component was subtracted from the observed absorption spectrum by first fitting the scattering (non-absorption) portion of the spectrum (e.g. 700-800 nm) to the formula A=aλ^b, where A is the absorbance, λ is the wavelength, b is the order of the relationship between absorbance and wavelength, and a is a constant. The background signal due to scattering for all other wavelengths is then estimated using the coefficients determined from the fit. […] After scatter correction, the transmission spectrum for each absorption spectrum was calculated according to the Beer-Lambert law (T=10^−A×100%), where T is the transmission and A is the absorbance at each wavelength. […]

porcine sclera = test: Yellowing of cross-linked scleral tissue
Method: Additional β-nitro alcohols related to 2-nitroethanol were also tested for scleral cross-linking efficacy. In addition to 2-nitroethanol, there was 2-nitro-1-propanol, 3-nitro-2-pentanol, and 2-nitrophenol. […] This effect was not blocked by addition of equimolar urea (Table 5).

ARPE-19 cells = system: ARPE-19 cells
Source text: A cytotoxicity study was undertaken to obtain an impression of the level of cellular tolerance to these compounds. For pilot experiments ARPE-19 cells were used. This is an immortal human retinal pigment epithelial cell line commonly used for experiments related to macular degeneration. In these pilot studies, the ARPE-19 cells serve as a surrogate for cytotoxicity experiments. Primary cultures of bovine corneal endothelial cells were also used in the cytotoxicity studies described. Bovine corneal cells have more direct relevance for evaluating potential cytotoxic effects during cross-linking of living eye tissue.
ARPE-19 cells were grown to 80% confluence in 96 well tissue culture plates. The cells were then exposed to varying concentrations of NaNO2 and 2-nitroethanol in their culture medium and evaluated for cell death using trypan blue (TB) staining (0.4% for 5 min) after 24 hrs.

With `O=[N+]([O-])CCO` [2-nitroethanol] the “Cytotoxic threshold (using trypan blue)” value ([1]; 0.1 mM) was “−”, the “Cytotoxic threshold (using trypan blue)” value ([1]; 0.5 mM) was “−” and the “Cytotoxic threshold (using trypan blue)” value ([1]; 0.75 mM) was “−”. For the same compound, the “Cytotoxic threshold (using trypan blue)” value ([1]; 1 mM) was “−”, the “Cytotoxic threshold (using trypan blue)” value ([1]; 2 mM) was “−” and the “Cytotoxic threshold (using trypan blue)” value ([1]; 3 mM) was “+”. For the same compound, the “Cytotoxic threshold (using trypan blue)” value ([1]; 5 mM) was “+”, the “Cytotoxic threshold (using trypan blue)” value ([1]; 7 mM) was “+” and the “Cytotoxic threshold (using trypan blue)” value ([1]; 10 mM) was “+”. The tolerable level ([1]; bovine corneal endothelial cells) was 0.0273%, the highest tolerated level ([1]; bovine corneal endothelial cells, 48 hrs) was 2 mM and 3 mM and the “T50 (temperature at 50% of maximal shrinkage)” value (human sclera; 1 mM) was 66.3 °C. For the same compound, the “T50 Δ (change in 50% shrinkage temperature compared to control)” value (human sclera; 1 mM) was 0.3 °C, the “Ti (temperature at 1% absolute shrinkage)” value (human sclera; 1 mM) was 60.8 °C and the “T50 (temperature at 50% of maximal shrinkage)” value (human sclera; 10 mM) was 68.2 °C. For the same compound, the “T50 Δ (change in 50% shrinkage temperature compared to control)” value (human sclera; 10 mM) was 2.2 °C, the “Ti (temperature at 1% absolute shrinkage)” value (human sclera; 10 mM) was 64.4 °C and the “T50 (temperature at 50% of maximal shrinkage)” value (human sclera; 100 mM) was 73.5 °C. The “T50 Δ (change in 50% shrinkage temperature compared to control)” value (human sclera; 100 mM) was 7.5 °C, the “Ti (temperature at 1% absolute shrinkage)” value (human sclera; 100 mM) was 71.7 °C and the “Apoptosis (Annexin V) staining” value ([2]; 0.1 mM) was “−”. For the same compound, the “Apoptosis (Annexin V) staining” value ([2]; 0.5 mM) was “−”, the “Apoptosis (Annexin V) staining” value ([2]; 0.75 mM) was “−” and the “Apoptosis (Annexin V) staining” value ([2]; 1 mM) was “−”. For the same compound, the “Apoptosis (Annexin V) staining” value ([2]; 2 mM) was “−”, the “Apoptosis (Annexin V) staining” value ([2]; 3 mM) was “+” and the “decrease in light transmission, 400-500 nm blue light region” value (porcine cornea) was 3.6%. The “propensity to induce tissue yellowing” value (porcine sclera) was “greatest propensity to induce tissue yellowing”, the “trypan blue (TB) uptake” value (ARPE-19 cells; 1 mM, 24 hrs) was “no TB was taken up” and the “trypan blue (TB) uptake” value (ARPE-19 cells; 10 mM, 24 hrs) was “all of the cells took up TB”. For the same compound, the cytotoxic threshold (ARPE-19 cells; 24 hrs, trypan blue) was > 1 mM and 1 to 10 mM, the highest tolerated level (ARPE-19 cells; ARPE-19) was 1 mM and the tolerable level (ARPE-19 cells; ARPE-19) was 0.0091%.
